System: EMT6 mouse breast carcinoma syngeneic tumor
Assay: Study 2: EMT6 mouse syngeneic tumor model, subcutaneous, anti-tumor efficacy
Assay type: in vivo, female BALB/c mice
Conditions: for GRI (%) Day 21: vs vehicle; for Complete Regressions: n=10/group, 60-day study; for Combination Assessment / Synergy Score %: data through Day 21
Source text: Studies 1 and 2: EMT6 is a mouse breast carcinoma cell line. EMT6 mouse syngeneic tumor model was generated by subcutaneous (sc) inoculation with 0.2×10^6 EMT6 cells (cell suspension) in nine to ten week old female BALB/c mice (Vital River Laboratory Animal Technology Co., Ltd., Beijing, China) in the flank. When the mean tumor volume reached 60 mm^3 in Study 1 and 75 mm^3 in Study 2 the animals were randomized into one vehicle control and seven treatment groups (n=10/group). Mice were then dosed with vehicle (phosphate buffered saline (PBS)) or Compound No. 14 or 10 Gy Radiation or Compound No. 14 plus 10 Gy Radiation over an eight-day period. Tumor growth and body weight were measured three times per week during the treatment and post-treatment periods. Mice were humanely euthanized once they reached their humane endpoint or until study termination on day 72 (Study 1) or on day 60 (Study 2).
Studies 1 and 2: A 0.1 mg/mL stock solution of Compound No. 14 was formulated in PBS and administered intravenously (IV) based on exact animal body weight on each day of treatment, using a dosing volume of 10 mL/kg body weight. Final doses received were 1.0 mg/kg. […] Compound No. 14 was administered on a Q3D schedule for 3 doses (Day 2, 5 and 8) in single agent treatment group and in combination treatment groups. Dose formulation of Compound No. 14 was prepared once and utilized for dosing on Days 2, 5 and 8.
Radiation treatment for Studies 1 and 2 was performed using RadSource RS 2000 X-ray irradiator (Rad Source Technologies). Animals received 1.046 Gy/minute of radiation and approximately 9.5 min was needed to reach a 10 Gy dose delivery. Animals were anesthetized prior to placement in irradiation chamber using isoflurane and checked for reflexes. Radiation beam was focused on tumor with manual positioning. Radiation was administered via manual positioning in a single 10 Gy dose on either day 0, 2 or 4 in Study 1, and on either day 0, 1, 2, 3 or 4 in Study 2.
Tumors were measured three times weekly using vernier calipers. Tumor volumes were calculated using standard equation: V=W^2×L/2, where V=volume, W=width, and L=length for the tumor. When mean tumor volumes reached approximately 60 mm^3 for Study 1, 75 mm^3 for Study 2, and 110 mm^3 for Study 3, mice were randomized into eight groups (n=10/group) in Studies 1 and 2, and nine groups (n=8/group) in Study 3. These groups were then dosed with vehicle (PBS), Compound No. 14, Radiation, anti-mPD-1 or isotype control, or combinations of these agents as described in Tables 1a, 2a, and 3a. Tumor size and body weight were measured three times a week for the duration of each study. Mice were euthanized for Studies 1 and 2 when their tumor volumes reached greater than 10% of their body weight or when an individual tumor exceeded the humane end-point for size (>2 cm) or when an animal lost 20% of their body weight relative to the start of the study or lost 15% of their body weight in any 24 hr time frame. Mice were euthanized in Study 3 when tumor volume exceeded 2,000 mm^3 or an animal lost more than 20% of their body weight relative to the start of study.
Growth Rate Inhibition: The differences in the tumor growth trends over time between pairs of treatment groups were assessed by fitting each animal's data to a simple exponential growth model and comparing the mean growth rates of the two groups, as described in more detail below. The difference in the growth rates was summarized by the GRI, which is the reduction in growth rate experienced by the treatment group relative to that of the reference group, expressed as a fraction of the vehicle growth rate.
μT and μC are the mean tumor growth rates for the treatment and reference groups, respectively. μV is the mean tumor growth rate for the vehicle group, which in most cases is the same as the reference group.
A GRI greater than 100% is interpreted as tumor regression when the vehicle group is the same as the reference group. […]

[1] = Compound No. 14 1.0 mg/kg IV Q3D×3 + Radiation (10Gy) (Day 2)
[2] = Compound No. 14 1.0 mg/kg IV Q3D×3 + Radiation (10Gy) (Day 3)
[3] = Compound No. 14 1.0 mg/kg IV Q3D×3 + Radiation (10Gy) (Day 4)
[4] = Compound No. 14 + Radiation (10Gy) (Day 0)
[5] = Compound No. 14 + Radiation (10Gy) (Day 1)
[6] = Compound No. 14 + Radiation (10Gy) (Day 2)
[7] = Compound No. 14 + Radiation (10Gy) (Day 3)
[8] = Compound No. 14 + Radiation (10Gy) (Day 4)

For `Nc1ncnc2c1ncn2[C@@H]1O[C@@H]2COP(=O)(S)O[C@@H]3[C@H](O)[C@@H](COP(=O)(S)O[C@H]2[C@H]1F)O[C@H]3n1cc(F)c2c(=O)[nH]cnc21` (stereo partly drawn) [Compound No. 14], the “GRI (%) Day 21” value (Compound No. 14 1.0 mg/kg IV Q3D×3 (Days 2, 5, 8), single agent) was 20%, the “GRI (%) Day 21” value (Compound No. 14 1.0 mg/kg IV Q3D×3 + Radiation (10Gy) (Day 0)) was 60% and the “GRI (%) Day 21” value (Compound No. 14 1.0 mg/kg IV Q3D×3 + Radiation (10Gy) (Day 1)) was 62%. The “Complete Regressions” value [1] was 2, the “GRI (%) Day 21” value [1] was 68% and the “Complete Regressions” value [2] was 4. For the same compound, the “GRI (%) Day 21” value [2] was 64%, the “Complete Regressions” value [3] was 2 and the “GRI (%) Day 21” value [3] was 60%. For the same compound, the “Combination Assessment” value [4] was “additive”, the “Synergy Score %” value [4] was −20% and the “Combination Assessment” value (Compound No. 14 + Radiation (10Gy) (Day 0), listed as Compound No.14) was “Additive”. The “Combination Assessment” value [5] was “Additive”, the “Synergy Score %” value [5] was −22% and the “Combination Assessment” value [6] was “synergistic”. For the same compound, the “Synergy Score %” value [6] was −28%, the “Combination Assessment” value (Compound No. 14 + Radiation (10Gy) (Day 2), listed as Compound No.14) was “Synergistic” and the “Combination Assessment” value [7] was “Additive”. The “Synergy Score %” value [7] was −24%, the “Combination Assessment” value [8] was “Additive” and the “Synergy Score %” value [8] was −20%.
